Experimental data taken from paper PMC10112521, “High-throughput AR dimerization assay identifies androgen disrupting chemicals and metabolites” (Frontiers in Toxicology, 2023).
Structures can show the parent of a compound that is named as a salt. Where two headings read alike, the source gives them in different places.

Tests used:
AR2 cells (HepG2-AR2) = assay: Alamar Blue (resazurin) post hoc cell viability / cytotoxicity assay in AR2 cells; details: spid Viability, sheet antagonist_fits; for hill_tp (Hill model top): 0 where win_model is Constant
Procedure: For antagonist mode and cytotoxicity data, well-level normalized response (resp) was calculated as: resp=100 * RLU−bval/pval−bval where pval is the median RLU value of the MEC positive control wells (minimum four wells).

AR = tested on: AR; set-up: method as in Kleinstreuer et al., 2017; details: 2017, cited from earlier work; for Agonist reference: AR agonist reference class ref Kleinstreuer et al.; for Antagonist reference: AR antagonist reference class ref Kleinstreuer et al.
[1] = tested on: full-length human AR and the receptor interacting domain (RID) of SRC1; set-up: method as in U.S. EPA, 2002b; details: activity call, single protocol detects agonists and antagonists, invitroDBv3.4 ref U.S. EPA, 2002b, cited from earlier work
human AR [2] = biological target: T1, human AR (Homo sapiens, UniProt P10275); assay: AR2 assay, agonist mode: ligand-dependent AR homodimerization (NanoBiT luciferase complementation) in stable HepG2-AR2 cells; assay type: cell-based; details: for hill_tp: Hill model top (efficacy); for max_med: maximum median response; for win_model: winning concentration-response model (Constant, Hill, Gain-Loss);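 on hill tp: Log2 fold change of luminescence over DMSO vehicle wells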;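 on max med: Log2 fold change of luminescence over DMSO vehicle wells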
T1 sequence (P10275 1-920) 1: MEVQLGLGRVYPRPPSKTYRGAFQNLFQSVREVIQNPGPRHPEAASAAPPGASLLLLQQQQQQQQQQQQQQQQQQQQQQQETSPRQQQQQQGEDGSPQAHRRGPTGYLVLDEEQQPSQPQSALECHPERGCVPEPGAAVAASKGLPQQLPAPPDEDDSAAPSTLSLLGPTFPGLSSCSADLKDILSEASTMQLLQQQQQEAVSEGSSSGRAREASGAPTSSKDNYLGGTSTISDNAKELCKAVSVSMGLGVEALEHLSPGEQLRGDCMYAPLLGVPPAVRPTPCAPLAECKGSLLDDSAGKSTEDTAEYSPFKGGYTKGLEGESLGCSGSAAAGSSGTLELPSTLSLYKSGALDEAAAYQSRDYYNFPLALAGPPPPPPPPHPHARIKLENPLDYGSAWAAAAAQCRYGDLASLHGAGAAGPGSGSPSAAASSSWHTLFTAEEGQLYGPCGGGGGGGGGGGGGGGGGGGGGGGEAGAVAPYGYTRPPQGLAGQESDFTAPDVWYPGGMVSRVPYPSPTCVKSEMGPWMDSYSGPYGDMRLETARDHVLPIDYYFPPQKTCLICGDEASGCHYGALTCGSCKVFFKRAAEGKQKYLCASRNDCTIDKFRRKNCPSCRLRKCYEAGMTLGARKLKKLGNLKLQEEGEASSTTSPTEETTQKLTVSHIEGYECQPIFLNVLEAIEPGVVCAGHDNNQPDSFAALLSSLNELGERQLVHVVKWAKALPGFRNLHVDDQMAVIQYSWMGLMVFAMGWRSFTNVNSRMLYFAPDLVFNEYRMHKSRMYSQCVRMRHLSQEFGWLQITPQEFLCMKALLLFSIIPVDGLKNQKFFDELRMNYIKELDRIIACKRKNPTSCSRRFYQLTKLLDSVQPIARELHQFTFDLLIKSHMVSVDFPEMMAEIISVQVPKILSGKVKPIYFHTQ
T1 sequence (P10275 1-920) 2: T1 sequence (P10275 1-920) 1

human AR [3] = biological target: T1, human AR; assay: AR2 assay, antagonist mode: disruption of R1881 (10 nM)-induced AR homodimerization in HepG2-AR2 cells; assay type: cell-based; details: for hill_gw (Hill model slope) / hill_tp (Hill model top): 0 where win_model is Constant
human AR [4] = biological target: T1, human AR; assay: cell-based; set-up: species or system AR2 cells (HepG2-AR2); NanoLuc complementation AR homodimerization, antagonist mode, loss of agonist-induced luminescence, AC50 by Hill fit; details: hill_ga, antagonist mode, 10 nM agonist stimulus, 18 h, no CYP expressed
[5] = sheet agonist_fits, 0 given where win_model is Constant
[6] = spid AR_antagonist, sheet antagonist_fits
[7] = spid AR_antagonist, sheet antagonist_fits, Hill fit parameter

Structure (SMILES) | max_med (maximum median response) (AR2 cells (HepG2-AR2)) | hill_tp (Hill model top) (AR2 cells (HepG2-AR2)) | Agonist reference (AR) | Antagonist reference (AR) | Antagonist reference (AR; Supplementary Table S1) | hill_tp (human AR [2]; [5]) | max_med (human AR [2]; sheet agonist_fits) | win_model (human AR [2]; sheet agonist_fits) | max_med (maximum median response) (human AR [3]; [6]) | further results
C#C[C@]1(O)CC[C@H]2[C@@H]3CCC4=CC(=O)CC[C@@H]4[C@H]3CC[C@@]21C [Norethindrone] | 2.971 | 0 | Strong | – | – | – | – | – | – | Agonist reference (AR; Supplementary Table S1): Strong
CC(C)C(=O)Nc1ccc([N+](=O)[O-])c(C(F)(F)F)c1 [Flutamide] | 35.756 | 43.7281 | Inactive | Moderate | Moderate | – | – | – | – | –
CON(C)C(=O)Nc1ccc(Cl)c(Cl)c1 [Linuron] | 8.62 | 20.739 | – | Moderate | Moderate | – | – | – | – | –
CCCCOC(=O)c1ccccc1C(=O)OCc1ccccc1 [Butylbenzylphthalate] | 15.4413 | 12.3573 | – | – | – | – | – | – | – | Agonist reference (AR; Supplementary Table S1): Inactive
CC(C)(O)C(=O)Nc1ccc([N+](=O)[O-])c(C(F)(F)F)c1 [Hydroxyflutamide] | 16.5535 | 15.0961 | – | Strong | Strong | 5.723 | 5.832 | Hill | 26.302 | OT 8 hr ([1]; 8 h): 1; OT 16 hr ([1]; 16 h): 1; activity call in agonist mode (human AR [2]; 128-chemical evaluation, 18 h, active = maximal median response >5*bmad): tested active; hill_gw (human AR [2]; sheet agonist_fits, Hill model gain slope (Hill coefficient), 0 given where win_model is Constant): 0.8082; activity call in antagonist mode (human AR [3]; 128-chemical evaluation, 18 h, active = maximal median response >3*bmad and AC50 at least 0.5 log units below cytotoxicity AC50): tested inactive; AR2 antagonist (human AR [3]; activity call, antagonist mode, 18 h): 0; Emax (human AR [3]; read-out: antagonist response / maximum efficacy (% inhibition)): > 90%; win_model (winning concentration-response model) (human AR [3]; [6]): Hill; hill_gw (Hill model slope) (human AR [3]; [6]): 8; hill_tp (Hill model top) (human AR [3]; [6]): 19.7734
CC(C)(C)NC(=O)[C@H]1CC[C@H]2[C@@H]3CC[C@H]4NC(=O)C=C[C@]4(C)[C@H]3CC[C@]12C [Finasteride] | 14.3947 | 0 | Inactive | – | – | – | – | – | – | –
COc1ccc(C(c2ccc(OC)cc2)C(Cl)(Cl)Cl)cc1 [Methoxychlor] | 4.672 | 0 | – | Weak | Weak | – | – | – | – | –
CCCN(CCOc1c(Cl)cc(Cl)cc1Cl)C(=O)n1ccnc1 [Prochloraz] | 76.2192 | 81.7308 | Inactive | Moderate | Moderate | – | – | – | – | –
CCN(CC)CCOc1ccc(/C(=C(/Cl)c2ccccc2)c2ccccc2)cc1 [Enclomiphene hydrochloride] | 99.6641 | 101.238 | – | – | – | 0 | 0.05981 | Constant | 104.097 | win_model (winning concentration-response model) (human AR [3]; [6]): Hill; hill_gw (Hill model slope) (human AR [3]; [6]): 2.002; hill_tp (Hill model top) (human AR [3]; [6]): 106.442
CCOC(=O)CC(SP(=S)(OC)OC)C(=O)OCC (stereo not drawn) [Malathion] | 9.605 | 0 | – | – | – | 0 | 0.05987 | Constant | 33.4262 | win_model (winning concentration-response model) (human AR [3]; [6]): Hill; hill_gw (Hill model slope) (human AR [3]; [6]): 0.997; hill_tp (Hill model top) (human AR [3]; [6]): 41.649
COP(=O)(OC)O/C(=C\Cl)c1cc(Cl)c(Cl)cc1Cl [Z-Tetrachlorvinphos] | 16.5553 | – | – | – | – | 0 | 0.08626 | Constant | 94.4561 | hill_tp (Hill model top of curve) (AR2 cells (HepG2-AR2); Hill fit parameter): 16.4592; AC50 (human AR [4]; spid=Bgal): 28.8 µM; AC50 (human AR [4]; spid=No_RNA): 28.9 µM; win_model (winning curve-fit model) (human AR [3]; spid AR_antagonist, sheet antagonist_fits, Constant = no concentration response): Hill; hill_gw (Hill model slope/Hill coefficient) (human AR [3]; [7]): 1.437; hill_tp (Hill model top of curve) (human AR [3]; [7]): 113.966
